This is an account of results in patent US20090111798A1, “5,6-DIHYDRO-1H-PYRIDIN-2-ONE COMPOUNDS” (priority 2006, published 2009).

The term IC50 denotes the concentration that gives 50% inhibition. A higher IC50 goes with a need for much substance.

NS5B polymerase, sequence (P26663 2420-3010): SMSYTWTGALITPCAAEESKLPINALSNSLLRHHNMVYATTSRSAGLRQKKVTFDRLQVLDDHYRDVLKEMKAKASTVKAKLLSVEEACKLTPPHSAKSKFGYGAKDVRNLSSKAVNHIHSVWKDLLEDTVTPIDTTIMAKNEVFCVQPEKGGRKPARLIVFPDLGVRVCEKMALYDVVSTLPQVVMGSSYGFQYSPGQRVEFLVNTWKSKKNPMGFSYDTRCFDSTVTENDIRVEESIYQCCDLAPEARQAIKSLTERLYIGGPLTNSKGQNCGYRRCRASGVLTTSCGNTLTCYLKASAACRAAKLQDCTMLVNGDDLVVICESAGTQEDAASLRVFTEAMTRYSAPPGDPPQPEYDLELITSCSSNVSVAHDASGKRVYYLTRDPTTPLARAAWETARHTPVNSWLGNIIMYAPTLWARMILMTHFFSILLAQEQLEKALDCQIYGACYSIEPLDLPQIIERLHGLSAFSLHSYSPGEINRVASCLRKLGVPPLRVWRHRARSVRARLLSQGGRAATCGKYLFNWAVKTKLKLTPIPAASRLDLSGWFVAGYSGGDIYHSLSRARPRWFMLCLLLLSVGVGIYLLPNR

The assay has as its target NS5B polymerase (Hepatitis C virus genotype 1b, UniProt P26663). The assay can be described thus: biochemical. The settings on record: NS5B polymerase inhibition; 20 nM enzyme, 75 min at 28° C. The procedure: Compounds were tested for HCV polymerase inhibition. Assays were performed in a 96-well streptavidin-coated FlashPlate using 20 nM enzyme, 0.5μ Ci of [α-^33P]GTP, 0.6 μM GTP, and 250 nM 5′biotinylated oligo (rG13)/poly rC in 20 mM Tris-HCl, pH 7.5, 5 mM MgCl2, 5 mM dithiothreitol, 0.1 g/L bovine serum albumin, and 100 U/mL RNAse inhibitor. The reaction was stopped by aspiration after 75 min at 28° C. and the plate was washed several times. After washing and drying the plate, incorporated radioactivity was counted using a Microbeta scintillation counter. IC50 values were calculated relative to the uninhibited control and inhibition data were fitted to a 4-parameter IC50 equation.
`CS(=O)(=O)Nc1ccc2c(c1)S(=O)(=O)N=C(C1=C(O)C3CCCCCC3N(Cc3ccc(F)cc3)C1=O)N2` (stereo not shown) [Example 2, N-{3-[1-(4-Fluoro-benzyl)-4-hydroxy-2-oxo-2,4-a,5,6,7,8,9,9a-octahydro-1H-cyclohepta[b]pyridin-3-yl]-1,1-dioxo-1,4-dihydro-1λ^6-benzo[1,2,4]thiadiazin-7-yl}-methanesulfonamide] registered an IC50 of 20 to 100 nM.
The figure for `CS(=O)(=O)Nc1ccc2c(c1)S(=O)(=O)N=C(C1=C(O)C3CCCCCCC3N(Cc3ccc(F)cc3)C1=O)N2` (stereo not shown) [Example 3, N-{3-[1-(4-Fluoro-benzyl)-4-hydroxy-2-oxo-1,2,4a,5,6,7,8,9,10,10a-decahydro-cycloocta[b]pyridin-3-yl]-1,1-dioxo-1,4-dihydro-1λ^6-benzo[1,2,4]thiadiazin-7-yl]-methanesulfonamide] is 100 to 1000 nM.
The figure for `CS(=O)(=O)Nc1ccc2c(c1)S(=O)(=O)N=C(C1=C(O)[C@@H]3CCC[C@@H]3N(Cc3ccc(F)c(Cl)c3)C1=O)N2` [Example 11, (4aR,7aS)—N-{3-[1-(3-Chloro-4-fluoro-benzyl)-4-hydroxy-2-oxo-2,4-a,5,6,7,7a-hexahydro-1H-[1]pyrindin-3-yl]-1,1-dioxo-1,4-dihydro-1λ^6-benzo[1,2,4]thiadiazin-7-yl}-methanesulfonamide] is less than 20 nM; for `CS(=O)(=O)Nc1ccc2c(c1)S(=O)(=O)N=C(C1=C(O)[C@@H]3CCC[C@@H]3N(Cc3ccc(F)cc3)C1=O)N2` [Example 12, (4aR,7aS)—N-{3-[1-(4-Fluoro-benzyl)-4-hydroxy-2-oxo-2,4-a,5,6,7,7a-hexahydro-1H-[1]pyrindin-3-yl]-1,1-dioxo-1,4-dihydro-1λ^6-benzo[1,2,4]thiadiazin-7-yl}-methanesulfonamide] it is less than 20 nM.
The figure for `CS(=O)(=O)Nc1ccc2c(c1)S(=O)(=O)N=C(C1=C(O)[C@@H]3CCCC[C@@H]3N(Cc3ccc(F)cc3)C1=O)N2` [Example 13, (4aR,8aS)—N-{3-[1-(4-Fluoro-benzyl)-4-hydroxy-2-oxo-1,2,4a,5,6,7,8,8a-octahydro-quinolin-3-yl]-1,1-dioxo-1,4-dihydro-1λ^6-benzo[1,2,4]thiadiazin-7-yl}-methanesulfonamide] is 20 to 100 nM; for `CS(=O)(=O)Nc1ccc2c(c1)S(=O)(=O)N=C(C1=C(O)[C@@H]3CCC[C@@H]3N(Cc3ccc(C(F)(F)F)cc3)C1=O)N2` [Example 14, (4aR,7aS)—N-{3-[4-Hydroxy-2-oxo-1-(4-trifluoromethyl-benzyl)-2,4-a,5,6,7,7a-hexahydro-1H-[1]pyrindin-3-yl]-1,1-dioxo-1,4-dihydro-1λ^6 benzo[1,2,4]thiadiazin-7-yl}-methanesulfonamide] it is 100 to 1000 nM; for `CS(=O)(=O)Nc1ccc2c(c1)S(=O)(=O)N=C(C1=C(O)[C@@H]3CCC[C@@H]3N(Cc3cccc(C(F)(F)F)c3)C1=O)N2` [Example 15, (4aR,7aS)—N-{3-[4-Hydroxy-2-oxo-1-(3-trifluoromethyl-benzyl)-2,4-a,5,6,7,7a-hexahydro-1H-[1]pyrindin-3-yl]-1,1-dioxo-1,4-dihydro-1λ^6-benzo[1,2,4]thiadiazin-7-yl}-methanesulfonamide] it is 100 to 1000 nM.
For `CS(=O)(=O)Nc1ccc2c(c1)S(=O)(=O)N=C(C1=C(O)C3CCC=CC3N(Cc3ccc(F)cc3)C1=O)N2` (stereo not shown) [Example 16, N-{3-[1-(4-Fluoro-benzyl)-4-hydroxy-2-oxo-1,2,4a,5,6,8a-hexahydro-quinolin-3-yl]-1,1-dioxo-1,4-dihydro-1λ^6-benzo[1,2,4]thiadiazin-7-yl}-methanesulfonamide], the IC50 was less than 20 nM.
The figure for `CC(C)CCN1C(=O)C(C2=NS(=O)(=O)c3cc(NS(C)(=O)=O)ccc3N2)=C(O)C2CCCCC21` (stereo not shown) [Example 20, N-{3-[2-(3-Methylbutyl)-5-hydroxy-3-oxo-2-aza-bicyclo[4.4.0]dec-4-en-4-yl]-1,1-dioxo-1,4-dihydro-1λ^6-benzo[1,2,4]thiadiazin-7-yl}-methanesulfonamide] is 20 to 100 nM.
The figure for `CC(C)(C)CCN1C(=O)C(C2=NS(=O)(=O)c3cc(NS(C)(=O)=O)ccc3N2)=C(O)C2CCCCC21` (stereo not shown) [Example 21, N-{3-[2-(3,3-Dimethylbutyl)-5-hydroxy-3-oxo-2-aza-bicyclo[4.4.0]dec-4-en-4-yl]-1,1-dioxo-1,4-dihydro-1λ^6-benzo[1,2,4]thiadiazin-7-yl}-methanesulfonamide] is 20 to 100 nM; for `Cc1cc(CN2C(=O)C(C3=NS(=O)(=O)c4cc(NS(C)(=O)=O)ccc4N3)=C(O)[C@@H]3CCC[C@@H]32)ccc1F` [Example 22, (4aR,7aS)—N-{3-[1-(4-fluoro-3-methyl-benzyl)-4-hydroxy-2-oxo-2,4-a,5,6,7,7a-hexahydro-1H-[1]pyrindin-3-yl]-1,1-dioxo-1,4-dihydro-1λ^6-benzo[1,2,4]thiadiazin-7-yl}-methanesulfonamide] it is less than 20 nM.
`Cc1cccc(CN2C(=O)C(C3=NS(=O)(=O)c4cc(NS(C)(=O)=O)ccc4N3)=C(O)[C@@H]3CCC[C@@H]32)c1` [Example 23, (4aR,7aS)—N-{3-[4-Hydroxy-1-(3-methyl-benzyl)-2-oxo-2,4-a,5,6,7,7a-hexahydro-1H-[1]pyrindin-3-yl]-1,1-dioxo-1,4-dihydro-1λ^6-benzo[1,2,4]thiadiazin-7-yl}-methanesulfonamide] showed an IC50 of less than 20 nM.
The same measure for `CS(=O)(=O)Nc1ccc2c(c1)S(=O)(=O)N=C(C1=C(O)[C@H]3CCC[C@H]3N(Cc3ccc(F)cc3)C1=O)N2` [Example 26, (4aS,7aR)—N-{3-[1-(4-Fluoro-benzyl)-4-hydroxy-2-oxo-2,4-a,5,6,7,7a-hexahydro-1H-[1]pyrindin-3-yl]-1,1-dioxo-1,4-dihydro-1λ^6-benzo[1,2,4]thiadiazin-7-yl}-methanesulfonamide]: 20 to 100 nM.
The compound `CS(=O)(=O)Nc1ccc2c(c1)S(=O)(=O)N=C(C1=C(O)[C@@H]3CCC[C@@H]3N(Cc3ccc(F)c(F)c3)C1=O)N2` [Example 27, (4aR,7aS)—N-{3-[1-(3,4-Difluoro-benzyl)-4-hydroxy-2-oxo-2,4-a,5,6,7,7a-hexahydro-1H-[1]pyrindin-3-yl]-1,1-dioxo-1,4-dihydro-1λ^6-benzo[1,2,4]thiadiazin-7-yl]-methanesulfonamide] showed an IC50 of less than 20 nM.
Take `CC(C)CCN1C(=O)C(C2=NS(=O)(=O)c3cc(NS(C)(=O)=O)ccc3N2)=C(O)[C@@H]2CCC[C@@H]21` [Example 28, (4aR,7aS)—N-{3-[4-Hydroxy-1-(3-methyl-butyl)-2-oxo-2,4-a,5,6,7,7a-hexahydro-1H-[1]pyrindin-3-yl]-1,1-dioxo-1,4-dihydro-1λ^6-benzo[1,2,4]thiadiazin-7-yl]-methanesulfonamide]: the half-inhibitory concentration (IC50) was less than 20 nM.
The figure for `CC(C)(C)CCN1C(=O)C(C2=NS(=O)(=O)c3cc(NS(C)(=O)=O)ccc3N2)=C(O)[C@@H]2CCC[C@@H]21` [Example 29, (4aR,7aS)—N-{3-[1-(3,3-Dimethyl-butyl)-4-hydroxy-2-oxo-2,4-a,5,6,7,7a-hexahydro-1H-[1]pyrindin-3-yl]-1,1-dioxo-1,4-dihydro-1λ^6-benzo[1,2,4]thiadiazin-7-yl]-methanesulfonamide] is less than 20 nM.
